Values of other authors in US20230149445A1, “OXIDATIVE STRESS INHIBITOR AND ANTIOXIDANT AGENT” (BOSQUET Silicon Corp., priority 2020, published 2023).

Conditions: water at 25° C.

[HH] [hydrogen (H2), hydrogen]
saturated solubility in water: 1.6 ppm
